Laboratory results: patent US20240025908A1, “COMPOUND USED AS KINASE INHIBITOR AND USE THEREOF” (TYK MEDICINES, INC., priority 2020, published 2024)

What was measured:
Ba/F3-LMNA-NTRK1-G595R = test: Inhibition of cell proliferation (CellTiter-Glo), Ba/F3-LMNA-NTRK1-G595R; type: cell-based; settings: 72 hours
Method: (§1) The experiment of inhibiting cell proliferation by compounds was carried out in Hefei Zhongkeprecedo Biomedical Technology Co., Ltd. The Ba/F3 engineered cell line stably transfected with different kinase genes was recovered with RPMI 1640 medium (Biological Industries, Israel)+10% fetal bovine serum (Biological Industries, Israel)+1% double antibody (Penicillin Streptomycin solution, Coring, USA) and cultivated two generations. The logarithmic growth phase cell suspension was taken, and 2000 cells/well were inoculated on 96-well white cell culture plate (Corning 3917, NY, USA) with a volume of 95 μL per well. 5 μL of 20×DMSO solution of the compound to be tested was added into the culture plate containing 95 μL of cell suspension. The blank control group was added with corresponding volume of DMSO, mixed well, and incubated in a 5% CO2 incubator at 37° C. for 72 hours. CellTiter-Glo was used to detect cell viability.

TRKA (G677C) = TRKA (G677C) (Homo sapiens, UniProt P04629, G667C); test: Radio-tagged HotSpot kinase assay, TRKA (G677C); type: biochemical
Chain of TRKA (G677C) (P04629 33-796 G667C limits assumed): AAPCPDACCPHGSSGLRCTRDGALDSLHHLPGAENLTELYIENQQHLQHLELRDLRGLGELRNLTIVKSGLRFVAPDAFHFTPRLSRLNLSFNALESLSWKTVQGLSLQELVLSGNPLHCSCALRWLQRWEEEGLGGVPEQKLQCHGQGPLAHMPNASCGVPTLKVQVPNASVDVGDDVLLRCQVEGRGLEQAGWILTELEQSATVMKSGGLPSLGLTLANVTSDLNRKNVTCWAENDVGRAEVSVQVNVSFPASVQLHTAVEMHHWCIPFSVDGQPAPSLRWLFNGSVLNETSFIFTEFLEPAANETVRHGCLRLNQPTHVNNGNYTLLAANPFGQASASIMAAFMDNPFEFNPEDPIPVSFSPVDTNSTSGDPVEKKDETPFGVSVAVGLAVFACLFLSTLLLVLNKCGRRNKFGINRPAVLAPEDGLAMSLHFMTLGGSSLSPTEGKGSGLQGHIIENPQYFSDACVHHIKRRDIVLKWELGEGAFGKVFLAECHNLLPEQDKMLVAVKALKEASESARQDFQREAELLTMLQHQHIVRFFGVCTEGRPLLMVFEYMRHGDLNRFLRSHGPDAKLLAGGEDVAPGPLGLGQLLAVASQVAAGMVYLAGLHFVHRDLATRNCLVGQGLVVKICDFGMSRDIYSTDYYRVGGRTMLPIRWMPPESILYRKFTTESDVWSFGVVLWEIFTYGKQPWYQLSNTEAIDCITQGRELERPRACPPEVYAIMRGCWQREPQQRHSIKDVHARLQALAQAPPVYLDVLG
Method: (§2) Inhibition of protein kinase activity by compounds was carried out on the Radio-tagged HotSpot kinase experimental platform of Reaction Biology Corporation. Fresh reaction solution (20 mM TIEPESpH 7.5, 10 mM MgCl2, 1 mM EGTA, 0.02% Brij35, 0.02 mg/ml BSA, 0.1 mM Na3VO4, 2 mM DTT, […]) containing corresponding substrates was prepared, cofactor and kinase to be tested were added into the above solution and mixed gently. Echo550 pipetting system was used to add the test compound DMSO solution to each well (the blank control group was added with the corresponding volume of DMSO), then 33P-ATP (with a final specific activity of 0.01 μCi/μL) was added to start the reaction. The reaction solution was incubated at room temperature for 120 minutes. Transferred the incubated reaction solution to P81 ion exchange chromatographic paper (Whatman #3698-915), eluted with […] phosphoric acid solution, and the amount of radioactive phosphorylated substrate remaining on the chromatographic paper was detected.

ROS1 (G2032R) = ROS1 (G2032R) (Homo sapiens (Human), UniProt P08922, G2032R); test: Radio-tagged HotSpot kinase assay, ROS1 (G2032R); type: biochemical
Chain of ROS1 (G2032R) (P08922 28-2347 G2032R): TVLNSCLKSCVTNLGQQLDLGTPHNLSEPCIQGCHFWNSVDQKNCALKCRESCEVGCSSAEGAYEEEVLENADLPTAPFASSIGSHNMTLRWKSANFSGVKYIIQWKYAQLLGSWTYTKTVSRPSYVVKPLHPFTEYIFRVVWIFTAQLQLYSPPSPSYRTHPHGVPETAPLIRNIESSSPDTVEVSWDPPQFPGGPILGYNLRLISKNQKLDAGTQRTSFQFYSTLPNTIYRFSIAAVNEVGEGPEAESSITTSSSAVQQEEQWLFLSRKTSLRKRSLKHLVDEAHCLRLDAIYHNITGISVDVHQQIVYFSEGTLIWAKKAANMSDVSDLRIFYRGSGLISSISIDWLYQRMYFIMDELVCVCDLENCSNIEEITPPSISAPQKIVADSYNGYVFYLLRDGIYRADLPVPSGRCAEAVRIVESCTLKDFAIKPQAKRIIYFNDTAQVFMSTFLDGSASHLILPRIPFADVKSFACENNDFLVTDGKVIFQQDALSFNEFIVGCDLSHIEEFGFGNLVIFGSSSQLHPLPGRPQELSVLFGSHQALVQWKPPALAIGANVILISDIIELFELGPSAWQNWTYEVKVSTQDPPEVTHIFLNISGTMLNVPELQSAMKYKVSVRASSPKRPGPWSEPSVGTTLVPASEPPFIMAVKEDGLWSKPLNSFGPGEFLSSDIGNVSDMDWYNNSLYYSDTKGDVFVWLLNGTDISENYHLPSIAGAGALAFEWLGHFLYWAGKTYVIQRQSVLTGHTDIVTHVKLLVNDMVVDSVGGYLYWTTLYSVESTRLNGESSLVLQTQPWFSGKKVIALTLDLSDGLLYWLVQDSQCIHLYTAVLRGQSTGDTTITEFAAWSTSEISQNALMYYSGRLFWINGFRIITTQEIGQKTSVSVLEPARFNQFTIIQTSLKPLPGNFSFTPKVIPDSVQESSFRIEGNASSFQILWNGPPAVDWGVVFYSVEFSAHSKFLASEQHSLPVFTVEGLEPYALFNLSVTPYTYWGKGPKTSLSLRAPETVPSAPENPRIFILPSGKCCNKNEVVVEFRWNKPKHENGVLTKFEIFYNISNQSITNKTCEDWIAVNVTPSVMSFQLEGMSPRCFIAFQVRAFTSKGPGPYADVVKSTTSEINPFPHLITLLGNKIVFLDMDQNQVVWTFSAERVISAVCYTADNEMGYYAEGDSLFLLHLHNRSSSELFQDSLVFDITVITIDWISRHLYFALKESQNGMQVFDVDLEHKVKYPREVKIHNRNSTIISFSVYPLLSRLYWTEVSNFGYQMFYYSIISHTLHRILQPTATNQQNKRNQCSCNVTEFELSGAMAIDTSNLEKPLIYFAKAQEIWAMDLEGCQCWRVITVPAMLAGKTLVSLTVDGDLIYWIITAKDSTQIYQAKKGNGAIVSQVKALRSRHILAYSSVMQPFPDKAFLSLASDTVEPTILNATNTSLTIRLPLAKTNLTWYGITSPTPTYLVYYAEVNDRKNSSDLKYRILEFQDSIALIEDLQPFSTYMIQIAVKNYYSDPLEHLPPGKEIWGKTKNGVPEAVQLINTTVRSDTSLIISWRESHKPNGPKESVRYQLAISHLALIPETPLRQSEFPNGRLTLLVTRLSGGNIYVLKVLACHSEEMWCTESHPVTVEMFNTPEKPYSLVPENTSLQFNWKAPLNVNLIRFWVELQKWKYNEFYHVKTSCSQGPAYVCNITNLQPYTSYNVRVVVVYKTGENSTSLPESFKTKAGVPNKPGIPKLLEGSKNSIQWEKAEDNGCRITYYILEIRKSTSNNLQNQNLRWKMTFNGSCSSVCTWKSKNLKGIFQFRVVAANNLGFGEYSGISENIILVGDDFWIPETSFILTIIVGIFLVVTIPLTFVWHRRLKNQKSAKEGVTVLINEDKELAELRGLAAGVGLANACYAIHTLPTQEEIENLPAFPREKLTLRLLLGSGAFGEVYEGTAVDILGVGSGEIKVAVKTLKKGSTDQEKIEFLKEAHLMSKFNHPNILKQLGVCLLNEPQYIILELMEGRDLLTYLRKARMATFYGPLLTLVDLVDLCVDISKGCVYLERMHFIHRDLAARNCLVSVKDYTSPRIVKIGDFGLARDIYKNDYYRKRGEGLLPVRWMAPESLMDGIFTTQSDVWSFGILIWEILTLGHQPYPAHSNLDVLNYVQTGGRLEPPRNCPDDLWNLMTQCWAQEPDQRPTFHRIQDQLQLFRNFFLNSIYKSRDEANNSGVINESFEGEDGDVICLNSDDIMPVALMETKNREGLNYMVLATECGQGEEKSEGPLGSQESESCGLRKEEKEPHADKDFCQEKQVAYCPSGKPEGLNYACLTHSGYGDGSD
Method: as §2

Ba/F3-CD74-ROS1-G2032R = test: Inhibition of cell proliferation (CellTiter-Glo), Ba/F3-CD74-ROS1-G2032R; type: cell-based; settings: 72 hours
Method: as §1

Ba/F3-TEL-ALK-G1202R = test: Inhibition of cell proliferation (CellTiter-Glo), Ba/F3-TEL-ALK-G1202R; type: cell-based; settings: 72 hours
Method: as §1

ALK = ALK (Homo sapiens (Human), UniProt Q9UM73); test: Radio-tagged HotSpot kinase assay, ALK; type: biochemical
Chain of ALK (Q9UM73 19-1620): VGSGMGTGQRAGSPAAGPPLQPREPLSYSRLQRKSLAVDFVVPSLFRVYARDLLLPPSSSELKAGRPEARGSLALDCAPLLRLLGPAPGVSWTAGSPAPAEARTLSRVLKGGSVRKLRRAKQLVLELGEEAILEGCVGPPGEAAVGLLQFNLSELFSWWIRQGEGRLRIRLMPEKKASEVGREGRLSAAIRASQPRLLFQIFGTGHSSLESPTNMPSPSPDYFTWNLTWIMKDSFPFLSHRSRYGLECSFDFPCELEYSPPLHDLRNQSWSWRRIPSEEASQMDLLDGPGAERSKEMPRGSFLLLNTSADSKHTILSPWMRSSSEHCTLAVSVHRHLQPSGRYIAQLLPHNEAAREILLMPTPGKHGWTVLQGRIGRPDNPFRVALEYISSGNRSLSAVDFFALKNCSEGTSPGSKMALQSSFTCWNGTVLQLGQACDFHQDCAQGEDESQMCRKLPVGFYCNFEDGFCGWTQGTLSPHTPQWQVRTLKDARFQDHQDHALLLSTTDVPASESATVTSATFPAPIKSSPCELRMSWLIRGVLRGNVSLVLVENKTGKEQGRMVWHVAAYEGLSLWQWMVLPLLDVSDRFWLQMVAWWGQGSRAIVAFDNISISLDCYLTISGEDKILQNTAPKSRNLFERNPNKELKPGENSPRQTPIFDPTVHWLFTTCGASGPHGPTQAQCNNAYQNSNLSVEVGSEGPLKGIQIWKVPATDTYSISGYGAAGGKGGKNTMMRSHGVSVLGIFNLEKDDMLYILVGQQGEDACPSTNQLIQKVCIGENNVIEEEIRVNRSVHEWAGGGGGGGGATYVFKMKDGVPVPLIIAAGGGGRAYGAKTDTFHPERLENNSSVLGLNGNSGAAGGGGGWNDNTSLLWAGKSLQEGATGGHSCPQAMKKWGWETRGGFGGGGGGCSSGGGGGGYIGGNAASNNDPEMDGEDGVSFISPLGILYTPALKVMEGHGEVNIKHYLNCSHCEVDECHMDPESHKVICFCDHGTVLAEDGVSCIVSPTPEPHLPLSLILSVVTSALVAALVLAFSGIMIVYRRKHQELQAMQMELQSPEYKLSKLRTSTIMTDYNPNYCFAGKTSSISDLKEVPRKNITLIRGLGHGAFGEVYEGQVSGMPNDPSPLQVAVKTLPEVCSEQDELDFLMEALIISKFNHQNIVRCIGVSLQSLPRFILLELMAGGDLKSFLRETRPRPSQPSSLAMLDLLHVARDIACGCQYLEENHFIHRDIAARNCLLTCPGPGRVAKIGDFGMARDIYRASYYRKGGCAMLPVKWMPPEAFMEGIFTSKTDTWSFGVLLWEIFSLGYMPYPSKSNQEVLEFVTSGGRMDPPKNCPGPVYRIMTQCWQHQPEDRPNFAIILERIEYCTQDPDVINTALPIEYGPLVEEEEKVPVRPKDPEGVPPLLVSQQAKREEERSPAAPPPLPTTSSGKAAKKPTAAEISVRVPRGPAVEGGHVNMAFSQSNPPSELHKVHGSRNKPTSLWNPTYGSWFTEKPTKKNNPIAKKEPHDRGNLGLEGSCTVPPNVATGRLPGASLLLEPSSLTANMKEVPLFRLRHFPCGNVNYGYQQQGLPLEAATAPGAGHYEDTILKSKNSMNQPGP
Method: as §2

ALK (G1202R) = ALK (G1202R) (Homo sapiens (Human), UniProt Q9UM73, G1202R); test: Radio-tagged HotSpot kinase assay, ALK (G1202R); type: biochemical
Chain of ALK (G1202R) (Q9UM73 19-1620 G1202R): as the sequence (Q9UM73 19-1620) above, with G1184R counted along it
Method: as §2

TRKA = TRKA (Homo sapiens (Human), UniProt P04629); test: Radio-tagged HotSpot kinase assay, TRKA; type: biochemical
Chain of TRKA (P04629 33-796): as the sequence (P04629 33-796 G667C limits assumed) above, with C635G counted along it
Method: as §2

ROS1 = ROS1 (Homo sapiens (Human), UniProt P08922); test: Radio-tagged HotSpot kinase assay, ROS1; type: biochemical
Chain of ROS1 (P08922 28-2347): as the sequence (P08922 28-2347 G2032R) above, with R2005G counted along it
Method: as §2

C[C@@H](Nc1ccn2ncc(C3=NOCCN3)c2n1)c1cc(F)ccc1OC(F)(F)F [Example 26]
IC50 (Ba/F3-LMNA-NTRK1-G595R): 11.2 nM
IC50 (TRKA (G677C)): 0.5 to 5 nM
IC50 (ROS1 (G2032R)): 0.5 to 5 nM
IC50 (Ba/F3-CD74-ROS1-G2032R): 35.2 nM
IC50 (Ba/F3-TEL-ALK-G1202R): 100 nM
IC50 (ALK): 0.5 to 5 nM
IC50 (ALK (G1202R)): 5 to 50 nM
IC50 (TRKA): < 0.5 nM
IC50 (ROS1): < 0.5 nM
